Laboratory results as given in patent publication US20220040212A1, “ORAL REHYDRATION COMPOSITION WITH OLIGOSACCHARIDES” (ABBOTT LABORATORIES, priority 2013, published 2022).
Several values for one entry are separate records, joined by “and”; a condition that tells them apart may be missing. Identical values can stand only once.

How the values were obtained:
[1] = Stability of oligosaccharides in oral rehydration solution, before/after retort sterilization and 3 weeks after (HPAEC); assay type: physicochemical; details: for LNnT / Lactose / % Theoretical LNnT: LNnT sample, pH 3.5; for % Theoretical LNnT: fortification 0.256 g/L
Experimental: A study was conducted to determine the relative stabilities of GOS, FOS, 2′-FL, 6′-SL, and LNnT in an oral rehydration solution. A master batch of product was prepared (shown in Table 1), the pH adjusted to approx. 4.25, and subsequently divided into five sub-batches.
Oligosaccharide ingredients were added to each of the sub-batches in amounts shown Table 2, and the pH of each sub-batch was subsequently adjusted to 3.5 with citric acid. The solutions were filled into 1 L plastic bottles, capped and retorted with a cook temperature of 217° F. for 25 minutes. Duplicate samples were collected immediately prior to sterilization and within 24 h after sterilization. Prior to sample analysis, the unsterile samples were stored at refrigerated temperature (˜40° F.) and the sterilized samples were held ambient temperature.
Samples were analyzed by HPAEC using a Dionex ICS3000 Ion Chromatography System (Thermo Scientific, Inc., Sunnyvale, Calif.) equipped with a pulsed amperometric detector comprised of a AgCl reference electrode, gold working electrode, and CarboPac PA1 guard (4×50 mm) and analytical columns (4×250 mm). Mobile phases were degassed and pressurized with 3 to 5 psi helium, and oligosaccharides eluted from the columns using various gradients detailed in Tables 3-5 at a flow rate of 1.0 mL/min. The column and detector were held at 20±2° C. Oligosaccharide identification and concentration were determined from quadratic fit (not forced through the origin) standard curves. […]
2′-FL fortification was calculated to be 0.2 g/L. Testing samples were reconstituted at 20 mL to 100 ml, with water, and then filtered using a 0.2 μm PES membrane syringe filter.
LNnT fortification was calculated to be 0.256 g/L. Testing samples were reconstituted at 20 mL to 100 ml, with water, and then filtered using a 0.2 μm PES membrane syringe filter.
6′-SL fortification was calculated to be 0.2 g/L. Testing samples were reconstituted at 20 mL to 100 mL with water, and then filtered using a 0.2 μm PES membrane syringe filter.

[2] = Stability of 2′-FL, LNnT and 6′-SL in an ORC over time (0 D to 14 weeks); assay type: physicochemical; details: for LNnT / Lactose / % Remaining * (LNnT) / % Remaining ** (LNnT): LNnT ORC pH 3.5; for % Remaining * (LNnT): vs target fortification
Experimental: Another study was performed to determine the stability of 2′-FL, LNnT, and 6′-SL in an ORC over time (e.g., 1 week, 3 weeks, 6 weeks, and 14 weeks).
Sample Preparation: A master batch with a pH of 4.25 is sub-divided. The oligosaccharides are added to the respective ORC in an amount of 0.2 g/L for 2′-FL and 6′-SL, LNnT was fortified in an amount of 0.256 g/L. The pH was then adjusted from 4.25 to 3.5 by addition of citric acid. Prior to sterilization, samples are collected to evaluate oligosaccharide levels. The formulas were then delivered into 1 L bottles and subjected to heat sterilization and allowed to cool to room temperature.
The data on day 0 was collected in duplicate for samples prior to sterilization (unsterile) and after sterilization (sterile), thereafter the data was collected only on the sterilized samples. […] The slight fluctuation in lactose and lactulose levels are likely due to method variability.
The data on day 0 was collected in duplicate for samples prior to sterilization (unsterile) and after sterilization (sterile), thereafter the data was collected only on the sterilized samples.
The data on day 0 was collected in duplicate for samples prior to sterilization (unsterile) and after sterilization (sterile), thereafter the data was collected only on the sterilized samples. […] At 14 weeks, the concentration was 2.3% of the target fortification amount.

[3] = 3-week after sterilization, average
[4] = 3-week after sterilization, samples 1, 2
[5] = sterile (after retort 217° F. 25 min), samples 1, 2
[6] = sterile (after retort), average

For `CC(=O)N[C@H]1[C@H](O[C@H]2[C@@H](O)[C@@H](CO)O[C@@H](O[C@H]3[C@H](O)[C@@H](O)C(O)O[C@@H]3CO)[C@@H]2O)O[C@H](CO)[C@@H](O[C@@H]2O[C@H](CO)[C@H](O)[C@H](O)[C@H]2O)[C@@H]1O` (mixture of isomers) [LNnT, lacto-N-neotetraose], which “Stability in the exemplary formulations (in words)” value [1] is on record?
The value was “enhanced stability”.

What about the LNnT [1, 3] of the same compound?
The LNnT was 269 mg/L.

And the Lactose [1, 3]?
Its Lactose is 28.1 mg/L.

And the “% Theoretical LNnT” value [1, 3]?
Its value is 105%.

And the LNnT [1, 4]?
The LNnT was 266.5 mg/L and 271.0 mg/L.

What about the Lactose [1, 4] of the same compound?
Its Lactose is 28.03 mg/L and 28.19 mg/L.

And the “% Theoretical LNnT” value [1, 4]?
The value was 104.2% and 106%.

And the LNnT [1, 5]?
Its LNnT is 261 mg/L and 261.1 mg/L.

What about the Lactose [1, 5] of the same compound?
The Lactose was 26.34 mg/L and 27.26 mg/L.

What about the LNnT [1, 6] of the same compound?
The LNnT was 261 mg/L.

What about the Lactose [1, 6] of the same compound?
Its Lactose is 26.8 mg/L.

And the “% Theoretical LNnT” value [1, 6]?
The value was 102%.

What about the “% Theoretical LNnT” value ([1]; sterile (after retort), samples 1, 2) of the same compound?
The value was 102.1%.

And the LNnT ([1]; unsterile, average)?
Its LNnT is 258 mg/L.

And the Lactose ([1]; unsterile, average)?
The Lactose was 25.6 mg/L.

What about the “% Theoretical LNnT” value ([1]; unsterile, average) of the same compound?
The value was 101%.

What about the LNnT ([1]; unsterile, samples 1, 2) of the same compound?
The LNnT was 257.6 mg/L and 259.4 mg/L.

What about the Lactose ([1]; unsterile, samples 1, 2) of the same compound?
The Lactose was 25.78 mg/L and 25.46 mg/L.

And the “% Theoretical LNnT” value ([1]; unsterile, samples 1, 2)?
Its value is 100.7% and 101.4%.

And the “Further loss 3-weeks after sterilization, relative to sterilized sample (in words)” value ([1]; oral rehydration solution pH 3.5, 3-weeks after sterilization)?
Its value is “no further loss”.

And the “Loss of oligosaccharide during sterilization (in words)” value ([1]; oral rehydration solution pH 3.5, retort 217° F. 25 min)?
Its value is “no decrease”.

What about the LNnT ([2]; 0 D, sterile, average) of the same compound?
Its LNnT is 261 mg/L.

And the Lactose ([2]; 0 D, sterile, average)?
The Lactose was 26.8 mg/L.

And the “% Remaining * (LNnT)” value ([2]; 0 D, sterile, average)?
Its value is 102%.

What about the LNnT ([2]; 0 D, sterile, samples 1, 2) of the same compound?
Its LNnT is 261 mg/L and 261.1 mg/L.

And the Lactose ([2]; 0 D, sterile, samples 1, 2)?
Its Lactose is 26.34 mg/L and 27.26 mg/L.

What about the “% Remaining * (LNnT)” value ([2]; 0 D, sterile, samples 1, 2) of the same compound?
Its value is 102.1%.

What about the LNnT ([2]; 0 D, unsterile, average) of the same compound?
Its LNnT is 258 mg/L.

And the Lactose ([2]; 0 D, unsterile, average)?
Its Lactose is 25.6 mg/L.

And the “% Remaining * (LNnT)” value ([2]; 0 D, unsterile, average)?
The value was 101%.

What about the LNnT ([2]; 0 D, unsterile, samples 1, 2) of the same compound?
Its LNnT is 257.6 mg/L and 259.4 mg/L.

What about the Lactose ([2]; 0 D, unsterile, samples 1, 2) of the same compound?
Its Lactose is 25.78 mg/L and 25.46 mg/L.

And the “% Remaining * (LNnT)” value ([2]; 0 D, unsterile, samples 1, 2)?
Its value is 100.7% and 101.4%.

What about the “% Remaining ** (LNnT)” value ([2]; 3 WK, sterile, average) of the same compound?
Its value is 105%.

And the LNnT ([2]; 3 WK, sterile, average)?
Its LNnT is 269 mg/L.

What about the Lactose ([2]; 3 WK, sterile, average) of the same compound?
Its Lactose is 28.10 mg/L.

And the “% Remaining ** (LNnT)” value ([2]; 3 WK, sterile, samples 1, 2)?
The value was 104.2% and 106%.

And the LNnT ([2]; 3 WK, sterile, samples 1, 2)?
The LNnT was 266.5 mg/L and 271.0 mg/L.

What about the Lactose ([2]; 3 WK, sterile, samples 1, 2) of the same compound?
Its Lactose is 28.03 mg/L and 28.19 mg/L.

What about the “% Remaining ** (LNnT)” value ([2]; 6 WK, sterile, average) of the same compound?
Its value is 104%.

And the LNnT ([2]; 6 WK, sterile, average)?
Its LNnT is 267 mg/L.

And the Lactose ([2]; 6 WK, sterile, average)?
Its Lactose is 29.7 mg/L.

What about the “% Remaining ** (LNnT)” value ([2]; 6 WK, sterile, samples 1, 2) of the same compound?
Its value is 103.9% and 104.9%.

What about the LNnT ([2]; 6 WK, sterile, samples 1, 2) of the same compound?
Its LNnT is 265.8 mg/L and 268.4 mg/L.

And the Lactose ([2]; 6 WK, sterile, samples 1, 2)?
Its Lactose is 30.89 mg/L and 28.6 mg/L.

And the “% Remaining ** (LNnT)” value ([2]; 14 WK, sterile, average)?
Its value is 105%.

And the LNnT ([2]; 14 WK, sterile, average)?
Its LNnT is 269 mg/L.

What about the Lactose ([2]; 14 WK, sterile, average) of the same compound?
The Lactose was 28 mg/L.

And the “% Remaining ** (LNnT)” value ([2]; 14 WK, sterile, samples 1, 2)?
The value was 106.6% and 103.4%.

And the LNnT ([2]; 14 WK, sterile, samples 1, 2)?
The LNnT was 272.7 mg/L and 264.3 mg/L.

What about the Lactose ([2]; 14 WK, sterile, samples 1, 2) of the same compound?
Its Lactose is 27.94 mg/L and 28.14 mg/L.

What about the “Change of oligosaccharide level over the course of the study (in words)” value ([2]; ORC pH 3.5, heat sterilized, 0 D to 14 weeks) of the same compound?
Its value is “No substantial loss”.
